Experimental data from article PMC9038204, “SNX27–Retromer directly binds ESCPE-1 to transfer cargo proteins during endosomal recycling” (PLoS Biology, 2022).
Read-outs that look alike come from different tables or passages of the source. Where no end group is shown, it is not given here.

Assays:
SNX6 = test: GFP trap co-immunoprecipitation from HEK-293T, quantitative western blot: SNX6; assay type: binding; details: Fig. 3F, GFP-tagged SNX1 WT or mutant as bait, WT set to 100, mean of n = 4
Procedure: (§1) HeLa and HEK-293T cell lines were sourced from ATCC. Authentication was from the ATCC. Cells were grown in DMEM (Sigma-Aldrich) supplemented with 10% (v/v) FCS (Sigma-Aldrich) and penicillin/streptomycin (Gibco, USA) and grown under standard conditions. FuGENE HD (Promega, USA) was used for transient transfection of DNA according to the manufacturer’s instructions. Cycloheximide was used to prevent up-regulation of protein synthesis. In this case, cycloheximide (C7698; Sigma-Aldrich) at 10 μg/ml was added to the cells 48 hours after FuGENE transfection for the indicated time points. For the generation of CRISPR-Cas9 SNX27 knockout HeLa cells, HeLa cells were transfected with pX330 plasmid coding for the gRNA against the gene of interest together with a puromycin resistance–expressing plasmid. Cells were then subjected to puromycin selection for 24 hours. The pooled population of cells was subjected to lysis and western blotting to confirm the knockout. The VPS35 knockout clonal cell line used in this study was characterized previously. For GFP-based immunoprecipitations, HEK293T cells were transfected with GFP constructs using polyethylenimine (Sigma-Aldrich) and expression was allowed for 48 hours.
(§2) For western blotting, cells were lysed in PBS with 1% (v/v) Triton X-100 and protease inhibitor cocktail. The protein concentration was determined with a BCA assay kit (Thermo Fisher Scientific, USA), and equal amounts were resolved on NuPAGE 4% to 12% precast gels (Invitrogen, USA). Blotting was performed onto polyvinylidene fluoride membranes (Immobilon-FL; EMD Millipore, USA) followed by detection using the Odyssey infrared scanning system (LI-COR Biosciences, USA). For GFP-based immunoprecipitations, HEK-293T cells were lysed 48 hours after transfection in immunoprecipitation buffer (50 mM Tris-HCl, 0.5% (v/v) NP-40, and Roche protease inhibitor cocktail) and subjected to GFP trap (ChromoTek, Germany). Immunoblotting was performed using standard procedures. Detection was performed on an Odyssey infrared scanning system (LI-COR Biosciences) using fluorescently labeled secondary antibodies. In using the Odyssey, we routinely performed western blot analysis where a single blot is simultaneously probed with antibodies against 2 proteins of interest (distinct antibody species) followed by visualization with the corresponding secondary antibodies conjugated to distinct spectral dyes.

SNX27 = test: GFP trap co-immunoprecipitation of GFP-SNX1/SNX2 constructs from HEK-293T, quantitative western blot: SNX27; assay type: binding; details: for SNX27 co-immunoprecipitated (quantitative western blot), mean: Fig. 3F, GFP-tagged SNX1 WT or mutant as bait, HEK-293T, WT set to 100, mean of n = 4; for reduced binding to SNX27: full-length GFP-SNX1 point mutants in HEK293T, versus SNX1 WT
Procedure: as §1, §2

[1] = molecular target: T1, full-length mouse SNX27 (mSNX27FL) (Mus musculus, UniProt Q3UHD6); test: ITC, hSNX1/2 peptides against mSNX27FL; assay type: binding; details: 25°C, 50 mM HEPES pH 7.5, 200 mM NaCl, 5% glycerol, 1 mM β-ME, 800 μM peptide titrated into 20 μM mSNX27FL, single-site fit, mean of at least 2 experiments
T1 construct: DNA encoding full-length mouse SNX27 (mSNX27FL hereafter) was inserted into the pMCSG7 vector; made in house; host or cells: Escherichia coli BL21 CodonPlus (DE3)
Procedure: Human SNX1 and SNX2 peptide sequences were synthesized by Genscript (USA). To obtain the peptide stock solutions at neutral pH, 100 mM Tris-HCl, pH 10.6 was used to dissolve the peptide to a final concentration of 8 mM. The peptides were SNX1_35-51 […], SNX135-51(D45K) […], SNX1_75-92 […], SNX2_16-33 […], SNX2_16-33(DLF/SSS) […], and SNX2_62-82 […].
All microcalorimetry experiments were conducted at 25°C using a PEAQ ITC (Malvern, UK) in 50 mM HEPES (pH 7.5), 200 mM NaCl, 5% glycerol, and 1 mM β-ME (ITC buffer). All proteins were purified by SEC using the same buffer prior to ITC experiments to avoid buffer mismatches. To measure binding of SNX27 to SNX1 proteins, 800 μM of hSNX27FERM was titrated into 20 μM of GST-mSNX1_1-139 or His-SNX1FL. For the binding of SNX1 and SNX2 peptides to SNX27, peptides were diluted 10-fold to 800 μM in ITC buffer peptides and titrated into 20 μM SNX27FL proteins containing the same 1:10 ratio of peptide buffer (100 mM Tris-HCl, pH 10.6). The competitive ITC experiments were carried out by titrating 800 μM SNX1_75-92 peptides into 20 μM proteins with 2-fold molar excess SNX2_16-33 peptide preincubated with SNX27 on ice for an hour. For ITC experiment using SNX1_75-92 against hSNX27 wild-type and single-site mutants, 600 μM SNX1_75-92 peptide was titrated into 20 μM hSNX27 proteins.
The ITC experiments were conducted with 1 injection of 0.4 μL followed by a series of 12 injections of 3.2 μL each with 180-second intervals and a stirring speed of 850 rpm. The heat exchange of interactions was obtained through integrating the observed peaks and background correction by subtracting the heats of dilution. Data were analyzed with Malvern software package by fitting and normalized data to a single-site binding model, yielding the thermodynamic parameters Kd, ΔH, ΔG, and −TΔS for all binding experiments. The stoichiometry was refined initially, and if the value was close to 1, then N was set to exactly 1.0 for calculation. All experiments were performed at least twice to guarantee reproducibility of the data.

[2] = system: HeLa cells, EEA1 endosomes; test: Colocalization of GFP-tagged SNX27 or SNX1 constructs with EEA1 (Pearson); assay type: cell-based
Procedure: (§3) Cells were fixed in 4% (v/v) PFA for 20 minutes and washed 3 times in PBS and permeabilized with 0.1% (v/v) Triton X-100. For LAMP1 staining, cells were instead permeabilized by submersion in liquid nitrogen for 20 seconds. Fixed cells were blocked in 1% (w/v) BSA and incubated in primary antibody and respective secondary antibody (Alexa Fluor; Thermo Fisher Scientific) in 1% (w/v) BSA.
(§4) Microscopy images were collected with a confocal laser-scanning microscope (SP5 AOBS; Leica Microsystems, Germany) attached to an inverted epifluorescence microscope (DMI6000; […]). A 63× 1.4 NA oil immersion objective (Plan Apochromat BL; Leica Biosystems, Germany) and the standard SP5 system acquisition software and detector were used. Images were captured at room temperature as z stacks with photomultiplier tube detectors with a photocathode made of gallium-arsenide-phosphide (Leica Microsystems) for collecting light emission. Images were captured using Application Suite AF software (version 2.7.3.9723; Leica Microsystems) and then analyzed with the Volocity 6.3 software (PerkinElmer, USA).

[3] = system: HeLa cells, SNX6 endosomes; test: Colocalization of GFP-tagged SNX27 or SNX1 constructs with SNX6 (Pearson); assay type: cell-based
Procedure: as §3, §4

[4] = system: HeLa cells, endogenous GLUT1; test: Cycloheximide degradation assay, GLUT1 level; assay type: cell-based; details: for GLUT1 level, 0h: 0h (set to 100)
Procedure: as §1, §2

[5] = system: HeLa cells, endogenous ITGA5; test: Cycloheximide degradation assay, ITGA5 level; assay type: cell-based; details: for ITGa5 level, 0h: 0h (set to 100)
Procedure: as §1, §2

[6] = 8h relative to 0h = 100, replicate n1, Fig. 6C
[7] = 8h relative to 0h = 100, replicate n2, Fig. 6C
[8] = 8h relative to 0h = 100, replicate n3, Fig. 6C

## D45K
SNX6
  SNX6 co-immunoprecipitated (quantitative western blot), mean: 102
SNX27; GFP trap
  SNX27 co-immunoprecipitated (quantitative western blot), mean: 45.07

## D87K
SNX6
  SNX6 co-immunoprecipitated (quantitative western blot), mean: 115.6
SNX27; GFP trap
  SNX27 co-immunoprecipitated (quantitative western blot), mean: 34.69

## E42K
SNX6
  SNX6 co-immunoprecipitated (quantitative western blot), mean: 105.5
SNX27; GFP trap
  SNX27 co-immunoprecipitated (quantitative western blot), mean: 52.35

## E44K
SNX6
  SNX6 co-immunoprecipitated (quantitative western blot), mean: 113.2
SNX27; GFP trap
  SNX27 co-immunoprecipitated (quantitative western blot), mean: 63.19

## E84K
SNX6
  SNX6 co-immunoprecipitated (quantitative western blot), mean: 104.1
SNX27; GFP trap
  SNX27 co-immunoprecipitated (quantitative western blot), mean: 45.59

## EAGDSDTEGEDIFTGAA [SNX1_35-51]
[1]; read-out: Kd
  Kd: 33.4 ± 1.89 µM

## EAGDSDTEGEKIFTGAA [SNX1_35-51(D45K), SNX1 35–51 peptide with charge swap mutation D45K]
[1]; listed as SNX1(D45K)
  Kd: no detectable binding
[1]; listed as hSNX135-51 (D45K)
  Kd: No binding detected

## F47K
SNX6
  SNX6 co-immunoprecipitated (quantitative western blot), mean: 98.51
SNX27; GFP trap
  SNX27 co-immunoprecipitated (quantitative western blot), mean: 42.86

## F89D
SNX6
  SNX6 co-immunoprecipitated (quantitative western blot), mean: 109.4
SNX27; GFP trap
  SNX27 co-immunoprecipitated (quantitative western blot), mean: 41.68

## GFP-SNX1(D45K): full-length GFP-SNX1 point mutant in the first aDLF motif
SNX27; Fig 3F
  reduced binding to SNX27: around 50%

## GFP-SNX1(D45K,D87K): double mutant targeting key residues in both aDLF motifs of SNX1
SNX27; Fig 3F, S2B Fig, double aDLF mutants in HEK293T, GFP trap
  SNX27 binding, in words: near undetectable levels

## GFP-SNX1(E42K): full-length GFP-SNX1 point mutant in the first aDLF motif
SNX27; Fig 3F
  reduced binding to SNX27: around 50%

## GFP-SNX1(E44K): full-length GFP-SNX1 point mutant in the first aDLF motif
SNX27; Fig 3F
  reduced binding to SNX27: around 50%

## GFP-SNX1(F47K): full-length GFP-SNX1 point mutant in the first aDLF motif
SNX27; Fig 3F
  reduced binding to SNX27: around 50%

## GFP-SNX1(I46K): full-length GFP-SNX1 point mutant in the first aDLF motif
SNX27; Fig 3F
  reduced binding to SNX27: around 50%

## GFP-SNX1: GFP-tagged full-length SNX1
[2]; mean of n = 3
  colocalization with EEA1 (SNX1 vs EEA1), mean: 0.4267
[2]; replicate n1
  colocalization with EEA1 (SNX1 vs EEA1): 0.53
[2]; replicate n2
  colocalization with EEA1 (SNX1 vs EEA1): 0.34
[2]; replicate n3
  colocalization with EEA1 (SNX1 vs EEA1): 0.41
[3]; mean of n = 3
  colocalization with SNX6 (SNX1 vs SNX6), mean: 0.6597
[3]; replicate n1
  colocalization with SNX6 (SNX1 vs SNX6): 0.81
[3]; replicate n2
  colocalization with SNX6 (SNX1 vs SNX6): 0.506
[3]; replicate n3
  colocalization with SNX6 (SNX1 vs SNX6): 0.663

## I46K
SNX6
  SNX6 co-immunoprecipitated (quantitative western blot), mean: 90.56
SNX27; GFP trap
  SNX27 co-immunoprecipitated (quantitative western blot), mean: 47.55

## KO +GFP-SNX1
[4]; replicate n1, Fig. 6C
  GLUT1 level, 0h: 100
[4]; replicate n2, Fig. 6C
  GLUT1 level, 0h: 100
[4]; replicate n3, Fig. 6C
  GLUT1 level, 0h: 100
[4]; 0h, mean of n = 3, Fig. 6C
  GLUT1 level, 0h, Mean 1: 100
[4]; 8h relative to 0h = 100, mean of n = 3, Fig. 6C
  GLUT1 level, 8h, Mean 2: 106.2
[4]; [6]
  GLUT1 level, 8h: 90.4645
[4]; [7]
  GLUT1 level, 8h: 112.847
[4]; [8]
  GLUT1 level, 8h: 115.364
[5]; replicate n1, Fig. 6C
  ITGa5 level, 0h: 100
[5]; replicate n2, Fig. 6C
  ITGa5 level, 0h: 100
[5]; replicate n3, Fig. 6C
  ITGa5 level, 0h: 100
[5]; 0h, mean of n = 3, right-hand (unlabelled) statistics block, Fig. 6C
  ITGa5 level, 0h, Mean 1: 100
[5]; [6]
  ITGa5 level, 8h: 98.9429
[5]; [7]
  ITGa5 level, 8h: 105.348
[5]; [8]
  ITGa5 level, 8h: 145.221

## TDFEDLEDGESSSTSTVS [SNX2_16-33(DLF/SSS), SNX2 16–33 peptide with triple mutation DLF-SSS]
[1]; listed as SNX2(DLF-SSS)
  Kd: no detectable binding
[1]; listed as hSNX216-33 (DLF-SSS)
  Kd: No binding detected

## TEVVLDDDREDLFAEATEEVS [SNX2_62-82]
[1]; read-out: Kd
  Kd: 22.6 ± 1.89 µM
